# In patent publication US7687473B2, “5-amino-4-imidazolecarboxamide riboside and its nucleobase as potentiators of antifolate transport and metabolism” (Health Research, Inc., priority 2005, dated 2010):
# Where two headings read alike, the source gives them in different places.
# How the values were obtained:
# [1] = system: CCRF-CEM cells; test: [3H]MTX uptake (initial velocity and 30 min accumulation) in CCRF-CEM cells; assay type: cell-based, human; details: for Potentiation of [3H]MTX uptake at 30 min: compound at 0.5 mM, 10 min pre-incubation with TMTX
# Description: (§1) Quantitation of folate and antifolate uptake. The method is essentially as follows. Briefly, logarithmically growing (3-5×10^5/ml) CCRF-CEM cells were harvested at room temperature by centrifugation at 1000×g for 5 min. After washing with the appropriate medium, cells were suspended at ≈2×10^7 cells/ml for use in transport studies. […] Anion-free MHS contains 250 mM sucrose and 20 mM HEPES, titrated to pH 7.4 with MgO. […] Uptake was measured as a function of time for 30 min (for rate and extent measurements) or over 5 min (studies requiring initial velocities). […] Uptake was terminated by diluting 100 μL samples into 1 ml of iced 0.9% NaCl. […] The supernatant was aspirated. The cell pellet was washed once with 1 ml iced 0.9% NaCl and centrifuged as above. The washed pellet was solubilized in 1 ml of 0.3% Triton X-100 by incubation for 60 min at 37° C. The solubilized pellet was transferred to a scintillation vial, 10 ml of Liquiscint (National Diagnostics, Atlanta, Ga.) was added and radioactivity was quantitated in a Beckman Model LS6500 liquid scintillation counter. Separate samples at the longest incubation time used in a particular experiment were harvested for HPLC analysis of intracellular contents as above, except that after the second wash the pellets were extracted with 1 ml boiling 0.1 M Na-phosphate, pH 5.5. The extract was clarified by centrifugation and the supernatant was filtered through an MPS-1 filter unit (Amicon) prior to HPLC analysis.
# [2] = system: CCRF-CEM cells; test: cells; assay type: cell-based, human
# Description: Inhibition of growth of human cell lines in vitro. Inhibition of growth of CCRF-CEM in continuous and intermittent drug exposures was measured. EC50 values were determined from plots of percent control growth versus the logarithm of drug concentration.
# […]; n=2). […]; n=2). Values presented are average±S.D. for n>2 and average±range for n=2. […] […]; EC50 data may therefore underestimate the biological potency.
# [3] = system: CCRF-CEM cells; test: [3H]leucovorin uptake in CCRF-CEM cells; assay type: cell-based, human
# Description: as §1
# [4] = target: T1, reduced folate carrier (RFC) (Homo sapiens, UniProt P41440); test: Inhibition of initial velocity of [3H]MTX influx by competitors; assay type: cell-based; details: for IC50: IC50, inhibition of initial velocity of [3H]MTX influx
# T1 construct: endogenous in cells; host or cells: CCRF-CEM (parental)
# T1 sequence (P41440 1-591): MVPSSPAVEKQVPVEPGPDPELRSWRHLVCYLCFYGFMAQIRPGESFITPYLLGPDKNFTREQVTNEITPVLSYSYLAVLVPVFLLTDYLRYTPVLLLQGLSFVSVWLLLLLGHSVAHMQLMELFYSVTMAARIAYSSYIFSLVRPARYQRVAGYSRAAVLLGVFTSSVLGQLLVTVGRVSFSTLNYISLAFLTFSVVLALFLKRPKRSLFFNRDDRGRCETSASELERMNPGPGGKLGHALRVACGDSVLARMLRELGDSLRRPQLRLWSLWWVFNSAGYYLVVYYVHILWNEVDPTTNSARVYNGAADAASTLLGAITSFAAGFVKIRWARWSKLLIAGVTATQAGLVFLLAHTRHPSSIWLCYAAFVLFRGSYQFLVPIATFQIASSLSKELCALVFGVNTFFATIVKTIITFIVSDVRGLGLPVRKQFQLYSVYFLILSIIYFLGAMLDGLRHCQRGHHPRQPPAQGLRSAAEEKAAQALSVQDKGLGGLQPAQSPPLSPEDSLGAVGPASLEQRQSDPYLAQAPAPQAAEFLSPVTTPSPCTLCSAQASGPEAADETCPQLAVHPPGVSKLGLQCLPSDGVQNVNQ
# Description: Duplicate samples were removed at 5 min and processed as described above.
# Inhibition of the vi of uptake was measured after pre-incubation of CCRF-CEM cells either with TMTX alone (measuring inhibition at the RFC) or with TMTX+Z (measuring inhibition during Z potentiation). […] All studies were carried out in standard transport medium. Inhibitory potency was measured in two series of experiments and AMT was included in each series as an internal control. Values are average±range of two determinations. […] Values are average±range for duplicate determinations.
# [5] = +TMTX + Z, 10 min pre-incubation with 1 μM TMTX and 0.5 mM Z (Z potentiated influx)
# [6] = +TMTX, 10 min pre-incubation with 1 μM TMTX alone (inhibition of the RFC)
smiles,measurement,setting,value
OC[C@H]1O[C@@H](n2cnc3c(O)ncnc32)[C@H](O)[C@@H]1O [inosine],Ability to potentiate [3H]MTX uptake,[1],unable to potentiate
same,Potentiation of [3H]MTX uptake at 30 min,[1],do not potentiate
Cc1ccc2nc(N)[nH]c(=O)c2c1Sc1ccncc1 [AG337],EC50,[2]; read-out: EC50 for growth inhibition,600 nM
same,Effect on potentiation of LV uptake induced by TMTX+Z,[3]; 20 μM,completely block
same,Potentiation of [3H]LV uptake,"[3]; 10 min preincubation at 2 or 20 μM, presence or absence of Z",does not potentiate
NC(=O)c1[nH]nc([C@@H]2O[C@H](CO)[C@@H](O)[C@H]2O)c1O [pyrazofurin],Ability to potentiate [3H]MTX uptake,[1],unable to potentiate
"Nc1nc(N)c2nc(CNc3ccc(C(=O)N[C@@H](CCC(=O)O)C(=O)O)cc3)cnc2n1 [AMT, 4-amino-pteroylglutamic acid]",Increase of growth inhibitory potency (EC50) by Z,"[2]; 0-24 hr pulse of 120 hr, 100 μM Z",≈ 2 fold
same,EC50,"[2]; Homo sapiens, CCRF-CEM, drug exposure 0-24/120 hr, [Z] 0 μM, read-out: EC50",6.1 ± 1.3 nM
same,EC50,"[2]; Homo sapiens, CCRF-CEM, drug exposure 0-24/120 hr, [Z] 100 μM, read-out: EC50",3.7 ± 0.3 nM
Nc1nc2c(ncn2[C@@H]2O[C@H](CO)[C@@H](O)[C@H]2O)c(=O)[nH]1 [guanosine],Ability to potentiate [3H]MTX uptake,[1],unable to potentiate
same,Potentiation of [3H]MTX uptake at 30 min,[1],do not potentiate
O=c1[nH]cnc2nc[nH]c12 [hypoxanthine],Potentiation of [3H]MTX uptake at 30 min,[1],do not potentiate
"Nc1ncnc2c1ncn2[C@@H]1O[C@H](CO)[C@@H](O)[C@H]1O [Adenosine, adenosine]",Ability to potentiate [3H]MTX uptake,[1],unable to potentiate
same,Potentiation of [3H]MTX uptake at 30 min,[1],do not potentiate
"Nc1nc2ncc(CNc3ccc(C(=O)N[C@@H](CCC(=O)O)C(=O)O)cc3)nc2c(=O)[nH]1 [PteGlu, folic acid]",IC50,[4]; [5],18500 ± 1100 nM
same,IC50,[4]; [6],18600 ± 600 nM
same,Plateau in inhibition of [3H]MTX influx,"[4]; observed ±Z, data not shown",60-70%
Nc1nc2[nH]cc(CCc3ccc(C(=O)N[C@@H](CCC(=O)O)C(=O)O)cc3)c2c(=O)[nH]1 [pemetrexed],EC50,"[2]; Homo sapiens, CCRF-CEM, 0-6 hr pulse exposure out of 120 hr, 50 μM Z, read-out: EC50",320 ± 30 nM
same,EC50,"[2]; Homo sapiens, CCRF-CEM, 0-6 hr pulse exposure out of 120 hr, absence of Z, read-out: EC50",300 ± 10 nM
same,EC50,"[2]; Homo sapiens, CCRF-CEM, 0-16 hr pulse exposure out of 120 hr, 50 μM Z, read-out: EC50",102 ± 17.5 nM
same,EC50,"[2]; Homo sapiens, CCRF-CEM, 0-16 hr pulse exposure out of 120 hr, absence of Z, read-out: EC50",85.5 ± 6.5 nM
same,EC50,"[2]; Homo sapiens, CCRF-CEM, 120 h, 120 hr continuous exposure, 50 μM Z, read-out: EC50",19.8 ± 3.3 nM
same,EC50,"[2]; Homo sapiens, CCRF-CEM, 120 h, 120 hr continuous exposure, absence of Z, read-out: EC50",18.3 ± 3.4 nM
"Nc1nc2c(c(=O)[nH]1)N(C=O)[C@H](CNc1ccc(C(=O)N[C@@H](CCC(=O)O)C(=O)O)cc1)CN2 [(6R,S)-LV, [6R,S]-5-formyltetrahydrofolate]",IC50,[4]; [5],2700 nM
same,IC50,[4]; [6],2600 ± 100 nM
"NC(=O)NC1NC(=O)NC1=O (stereo not shown) [ALN, allantoin]",Potentiation of [3H]MTX uptake,[1]; 500 μM,does not potentiate
same,Inhibition of potentiation by 500 μM Z,[1]; up to 100 μM,does not inhibit potentiation
Nc1ncnc2nc[nH]c12 [adenine],Potentiation of [3H]MTX uptake at 30 min,[1],do not potentiate
